Source: patent US5597899A, “Tumor necrosis factor muteins” (Hoffmann-La Roche Inc., priority 1993, dated 1997)

Legend:
[1] = system: human TNFR-p75; experiment: Solid phase radioligand competition binding assay, E. coli lysates, TNFR-p75; conditions: 10-fold serial dilutions 10^-2 to 10^-7, < = inhibition but below 50% at 1:100, << = no measurable inhibition at 1:100
Procedure: (§1) 10 ml suspensions of E. coli cells transformed and induced as described in Examples I and II were centrifuged at 4'000 rpm for 10 min and resuspended in 0.9 ml of lysis buffer (10 mM Tris-HCl pH 8.0, 5 mM EDTA, 2 mM PMSF, 10 mM benzamidine, 200 units/ml aprotinine and 0.1 mg/ml lysozyme). After 20 min incubation at room temperature 50 μl of 1M MgCl2, 20 μl of 5 mg/ml DNaseI, 50 μl of 5M NaCl and 50 μl of 10% NP-40 were added and the mixture was further incubated at room temperature for 15 min. 0.5 ml of the lysate clarified by centrifugation at 13'000 rpm for 5 min was subjected to ammonium sulfate precipitation (25%-70% cut). The 70% ammonium sulfat pellet was dissolved in 0.2 ml PBS and analyzed by sodium dodecyl sulfate polyacrylamide gel electrophoresis (SDS-PAGE) to confirm presence and approximate amount of the recombinant proteins.
96 well microtiter plates were coated with recombinant human […] TNFR-p75-hγ3 and TNFR-p55-hγ3 fusion proteins (extracellular portion of the receptor fused to the Fc part of human IgG3) at a concentration of 0.3 μg/ml and 0.1 μg/ml, respectively, in phosphate buffered saline (PBS, 100 μl/well, overnight at 4° C.) [Loetscher, H. et al. J. Biol. Chem. 266, 18324-18329 (1991); Lesslauer, W. et al. Eur. J. Immunol. 21, 2883-2886 (1991)]. After blocking with blocking buffer (50 mM Tris pH 7.4, 140 mM NaCl, 5 mM EDTA, 0.02% NAN3, 1% defatted milk powder) the microtiter plate was washed with PBS and incubated in blocking buffer containing 0.1% defatted milk powder with 10 ng/ml human wild-type ^125 I-TNFα and various dilutions of E. coli lysates ranging from 10^-2 to 10^-7 (10-fold serial dilutions). TNFα was labelled by the Iodogen method (Pierce Chemical Company) to a specific activity of about 10-30 μCi/μg. The volume was 100 μl/well and each lysate dilution was assayed in duplicate or triplicate. After three hours at room temperature the wells were thoroughly washed with PBS and counted in a γ-counter. The results are given in Table 2 for lysates comprising the muteins indicated therein.

[2] = system: human TNFR-p55; experiment: Solid phase radioligand competition binding assay, E. coli lysates, TNFR-p55; conditions: for Dilution of E. coli Lysate for 50% Inhibition of 125I-TNFα Binding (ID50) TNFR-p55: 10-fold serial dilutions 10^-2 to 10^-7, < = inhibition but below 50% at 1:100, << = no measurable inhibition at 1:100; for ID50 TNFR-p55 / ID50 TNFR-p75: ratio = 1 no receptor selectivity, > 1 TNFR-p55 selectivity, < 1 TNFR-p75 selectivity
Procedure: as §1, with “After” for “10 ml suspensions of E. coli cells transformed and induced as described in Examples I and II were centrifuged at 4'000 rpm for 10 min and resuspended in 0.9 ml of lysis buffer (10 mM Tris-HCl pH 8.0, 5 mM EDTA, 2 mM PMSF, 10 mM benzamidine, 200 units/ml aprotinine and 0.1 mg/ml lysozyme). After”
TNFα was labelled by the Iodogen method (Pierce Chemical Company) to a specific activity of about 10-30 μCi/μg. The volume was 100 μl/well and each lysate dilution was assayed in duplicate or triplicate. After three hours at room temperature the wells were thoroughly washed with PBS and counted in a γ-counter. The results are given in Table 2 for lysates comprising the muteins indicated therein.

## R31E-S86T: human TNFα mutein R31E-S86T
[1]
  Dilution of E. coli Lysate for 50% Inhibition of 125I-TNFα Binding (ID50) TNFR-p75: < 100 fold
[2]
  Dilution of E. coli Lysate for 50% Inhibition of 125I-TNFα Binding (ID50) TNFR-p55: 2,000 fold
  ID50 TNFR-p55 / ID50 TNFR-p75: > 20

## R31E: human TNFα mutein R31E
[1]
  Dilution of E. coli Lysate for 50% Inhibition of 125I-TNFα Binding (ID50) TNFR-p75: 180 fold
[2]
  Dilution of E. coli Lysate for 50% Inhibition of 125I-TNFα Binding (ID50) TNFR-p55: 3,470 fold
  ID50 TNFR-p55 / ID50 TNFR-p75: 19.3

## R31K: human TNFα mutein R31K
[1]
  Dilution of E. coli Lysate for 50% Inhibition of 125I-TNFα Binding (ID50) TNFR-p75: 3,330 fold
[2]
  Dilution of E. coli Lysate for 50% Inhibition of 125I-TNFα Binding (ID50) TNFR-p55: 3,330 fold
  ID50 TNFR-p55 / ID50 TNFR-p75: 1

## R31N-R32T: human TNFα mutein R31N-R32T
[1]
  Dilution of E. coli Lysate for 50% Inhibition of 125I-TNFα Binding (ID50) TNFR-p75: < 100 fold
[2]
  Dilution of E. coli Lysate for 50% Inhibition of 125I-TNFα Binding (ID50) TNFR-p55: 3,260 fold
  ID50 TNFR-p55 / ID50 TNFR-p75: > 32.6

## R32W-S86T: human TNFα mutein R32W-S86T
[1]
  Dilution of E. coli Lysate for 50% Inhibition of 125I-TNFα Binding (ID50) TNFR-p75: < 100 fold
[2]
  Dilution of E. coli Lysate for 50% Inhibition of 125I-TNFα Binding (ID50) TNFR-p55: 3,330 fold
  ID50 TNFR-p55 / ID50 TNFR-p75: > 33.3

## S86D: human TNFα mutein S86D
[1]
  Dilution of E. coli Lysate for 50% Inhibition of 125I-TNFα Binding (ID50) TNFR-p75: 1,000 fold
[2]
  Dilution of E. coli Lysate for 50% Inhibition of 125I-TNFα Binding (ID50) TNFR-p55: 6,670 fold
  ID50 TNFR-p55 / ID50 TNFR-p75: 6.7

## S86T: human TNFα mutein S86T
[1]
  Dilution of E. coli Lysate for 50% Inhibition of 125I-TNFα Binding (ID50) TNFR-p75: < 100 fold
[2]
  Dilution of E. coli Lysate for 50% Inhibition of 125I-TNFα Binding (ID50) TNFR-p55: 10,000 fold
  ID50 TNFR-p55 / ID50 TNFR-p75: > 100

## S99A: human TNFα mutein S99A
[1]
  Dilution of E. coli Lysate for 50% Inhibition of 125I-TNFα Binding (ID50) TNFR-p75: 6,670 fold
[2]
  Dilution of E. coli Lysate for 50% Inhibition of 125I-TNFα Binding (ID50) TNFR-p55: 6,670 fold
  ID50 TNFR-p55 / ID50 TNFR-p75: 1

## S99Y: human TNFα mutein S99Y
[1]
  Dilution of E. coli Lysate for 50% Inhibition of 125I-TNFα Binding (ID50) TNFR-p75: < 100 fold
[2]
  Dilution of E. coli Lysate for 50% Inhibition of 125I-TNFα Binding (ID50) TNFR-p55: < 100 fold
  ID50 TNFR-p55 / ID50 TNFR-p75: 1

## S147L: human TNFα mutein S147L
[1]
  Dilution of E. coli Lysate for 50% Inhibition of 125I-TNFα Binding (ID50) TNFR-p75: 3,330 fold
[2]
  Dilution of E. coli Lysate for 50% Inhibition of 125I-TNFα Binding (ID50) TNFR-p55: 2,000 fold
  ID50 TNFR-p55 / ID50 TNFR-p75: 0.6

## S147N: human TNFα mutein S147N
[1]
  Dilution of E. coli Lysate for 50% Inhibition of 125I-TNFα Binding (ID50) TNFR-p75: 10,000 fold
[2]
  Dilution of E. coli Lysate for 50% Inhibition of 125I-TNFα Binding (ID50) TNFR-p55: 10,000 fold
  ID50 TNFR-p55 / ID50 TNFR-p75: 1

## Y87E: human TNFα mutein Y87E
[1]
  Dilution of E. coli Lysate for 50% Inhibition of 125I-TNFα Binding (ID50) TNFR-p75: < 100 fold
[2]
  Dilution of E. coli Lysate for 50% Inhibition of 125I-TNFα Binding (ID50) TNFR-p55: < 100 fold
  ID50 TNFR-p55 / ID50 TNFR-p75: > 1

## Y87F: human TNFα mutein Y87F
[1]
  Dilution of E. coli Lysate for 50% Inhibition of 125I-TNFα Binding (ID50) TNFR-p75: < 100 fold
[2]
  Dilution of E. coli Lysate for 50% Inhibition of 125I-TNFα Binding (ID50) TNFR-p55: 200 fold
  ID50 TNFR-p55 / ID50 TNFR-p75: > 2

## Y87G: human TNFα mutein Y87G
[1]
  Dilution of E. coli Lysate for 50% Inhibition of 125I-TNFα Binding (ID50) TNFR-p75: < 100 fold
[2]
  Dilution of E. coli Lysate for 50% Inhibition of 125I-TNFα Binding (ID50) TNFR-p55: < 100 fold
  ID50 TNFR-p55 / ID50 TNFR-p75: 1

## Y87K: human TNFα mutein Y87K
[1]
  Dilution of E. coli Lysate for 50% Inhibition of 125I-TNFα Binding (ID50) TNFR-p75: < 100 fold
[2]
  Dilution of E. coli Lysate for 50% Inhibition of 125I-TNFα Binding (ID50) TNFR-p55: < 100 fold
  ID50 TNFR-p55 / ID50 TNFR-p75: 1

## Y87L: human TNFα mutein Y87L
[1]
  Dilution of E. coli Lysate for 50% Inhibition of 125I-TNFα Binding (ID50) TNFR-p75: < 100 fold
[2]
  Dilution of E. coli Lysate for 50% Inhibition of 125I-TNFα Binding (ID50) TNFR-p55: < 100 fold
  ID50 TNFR-p55 / ID50 TNFR-p75: 1

## Y87Q: human TNFα mutein Y87Q
[1]
  Dilution of E. coli Lysate for 50% Inhibition of 125I-TNFα Binding (ID50) TNFR-p75: < 100 fold
[2]
  Dilution of E. coli Lysate for 50% Inhibition of 125I-TNFα Binding (ID50) TNFR-p55: < 100 fold
  ID50 TNFR-p55 / ID50 TNFR-p75: 1

## Y87T-E104G: human TNFα mutein Y87T-E104G
[1]
  Dilution of E. coli Lysate for 50% Inhibition of 125I-TNFα Binding (ID50) TNFR-p75: < 100 fold
[2]
  Dilution of E. coli Lysate for 50% Inhibition of 125I-TNFα Binding (ID50) TNFR-p55: < 100 fold
  ID50 TNFR-p55 / ID50 TNFR-p75: 1
